Measured values reported in patent EP0309765A2, “1(2H)-Phthalazinones as cytoprotective agents” (FISONS CORPORATION, priority 1987, dated 1989).
Structures can show the parent of a compound that is named as a salt.

Tested on: Indomethacin-induced Gastric Lesions
Assay: Reversal of indomethacin-induced gastric lesions (number of macroscopically visible hemorrhagic lesions in the glandular stomach)
Type: in vivo, Male, Sprague-Dawley rats
Conditions: Rattus norvegicus, ip, 6 h, 1 hour before 25 mg/kg oral indomethacin, lesions counted six hours after indomethacin, versus saline control group, read-out: Percent Inhibition; for inhibition in vivo at 100 mg/kg: test compound 100 mg/kg intraperitoneal; for inhibition in vivo at 50 mg/kg: test compound 50 mg/kg intraperitoneal
Experimental: The methodology for determining the degree of inhibition of gastric lesion formation by the compounds of formula 1 is described below and the results, expressed as percent inhibition, are given in Table 1. Reversal of Indomethacin-induced Gastric Lesions Male, Sprague-Dawley rats weighing 200-225 grams were fasted 24 hours prior to the intraperitoneal administration of the test compounds. The standard screening dosed employed was either 100 or 50 mg/kg. One hour later, the rats were orally administered 25 mg/kg of indomethacin. Both indomethacin and the compounds were suspended in 1% Clearjel ("Instant Clearjel®", a food grade pregelatinized starch from National Starch and Chemical Corporation, New York, N.Y.) or .85% NaCl saline for dosing. Six hours after indomethacin administration, the animals were sacrificed, their stomachs removed, opened along the line of greater curvature, and rinsed with distilled water. The number of macroscopically visible hemmorhagic lesions (dark brown discolorations) in the glandular portion of the stomach was enumerated. […] [table]

| Structure (SMILES) | inhibition in vivo at 100 mg/kg [%] | inhibition in vivo at 50 mg/kg [%] |
| --- | --- | --- |
| COc1ccc(/C=C/c2ccc3c(=O)n(CCN(C(C)C)C(C)C)ncc3c2)cc1 [Example 1, Trans-6-[2-(4-methoxyphenyl)ethenyl]-2-[2-(diisopropylamino)-ethyl]phthalazin-1(2H)-one hydrobromide] | 92 | – |
| COc1ccc(/C=C/c2ccc3c(=O)n(CCCN4CCCCC4)ncc3c2)cc1 [Example 2, Trans-6-[2-(4-methoxyphenyl)ethenyl]-2-(3-piperidinopropyl)-phthalazin-1(2H)-one hydrobromide] | – | 91 |
| COc1ccc(/C=C/c2ccc3c(=O)n(CCN(C)C)ncc3c2)cc1 [Example 3, Trans-6-[2-(4-methoxyphenyl)ethenyl]-2-[2-(dimethylamino)-ethyl]phthalazin-1(2H)-one hydrobromide] | 65 | – |
| COc1ccc(/C=C/c2ccc3c(=O)n(CCN4CCOCC4)ncc3c2)cc1 [Example 4, Trans-6-[2-(4-methoxyphenyl)ethenyl]-2-(2-morpholinoethyl)-phthalazin-1(2H)-one hydrobromide] | – | 7 |
| COc1ccc(/C=C/c2ccc3c(=O)n(CCCN4CCNCC4)ncc3c2)cc1 [Example 5, Trans-6-[2-(4-methoxyphenyl)ethenyl]-2-[3-(1-piperazino)-propyl]phthalazin-1(2H)-one] | – | 89 |
| COc1ccc(/C=C/c2ccc3c(=O)n(C4CCN(C)CC4)ncc3c2)cc1 [Example 6, Trans-6-[2-(4-methoxyphenyl)ethenyl]-2-(1-methyl-4-piperidinyl)phthalazin-1(2H)-one] | 63 | – |
| CNCCCn1ncc2cc(/C=C/c3ccc(OC)cc3)ccc2c1=O [Example 7, Trans-6-[2-(4-methoxyphenyl)ethenyl]-2-[3-(methylamino)-propyl]phthalazin-1(2H)-one hydrobromide] | – | 79 |
| COc1ccc(/C=C/c2ccc3c(=O)n(CCCN)ncc3c2)cc1 [Example 8, Trans-6-[2-(4-methoxyphenyl)ethenyl]-2-(3-aminopropyl)-phthalazin-1(2H)-one hydrobromide] | – | 96 |
| COc1ccc(/C=C/c2ccc3c(=O)n(CCCCN(C)C)ncc3c2)cc1 [Example 9, Trans-6-[2-(4-methoxyphenyl)ethenyl]-2-[4-(dimethylamino)-butyl]phthalazin-1(2H)-one hydrobromide] | – | 85 |
| COc1ccc(/C=C\c2ccc3c(=O)n(CCCN(C)C)ncc3c2)cc1 [Example 10, CIs-6-[2-(4-methoxyphenyl)ethenyl]-2-[3-(dimethylamino)propyl]phthalazin-1(2H)-one cyclohexylsulfamate] | – | 61 |
| O=c1[nH]ncc2cc(/C=C/c3ccc(O)cc3)ccc12 [Example 11, Trans-6-[2-(4-Hydroxyphenyl)ethenyl]-phthalazin-1(2H)-one] | 45 | – |
| O=c1[nH]ncc2cc(/C=C/c3ccccc3)ccc12 [Example 12, Trans-6-[2-phenylethenyl]phthalazin-1(2H)-one] | 43 | – |
| COc1ccc(/C=C/c2ccc3c(=O)n(CCCN(C)C)ncc3c2)cc1 [Example 13, Trans-6-[2-(4-methoxyphenyl)ethenyl]-2-[3-dimethylamino)-propyl]phthalazin-1(2H)-one hydrobromide] | – | 99 |
| CN(C)CCCn1ncc2cc(/C=C/c3ccc(O)cc3)ccc2c1=O [Example 14, Trans-6-[2-(4-hydroxyphenyl)ethenyl]-2-[3-(dimethylamino)-propyl]phthalazin-1(2H)-one hydrochloride] | – | 96.3 |
| CN(C)CCn1ncc2cc(/C=C/c3ccc(O)cc3)ccc2c1=O [Example 15, Trans-6-[2-(4-hydroxyphenyl)ethenyl]-2-[2-(dimethylamino)-ethyl]-1(2H)-phthalazinone hydrochloride] | 7.2 | – |
| CN(C)CCCn1ncc2cc(/C=C/c3ccccc3)ccc2c1=O [Example 16, Trans-2-[3-(dimethylamino)propyl]-6-(2-phenylethenyl)-1(2H)-phthalazinone] | – | 80 |
| O=c1c2ccc(/C=C/c3ccccc3)cc2cnn1CCO [Example 17, Trans-2-(2-hydroxyethyl)-6-(2-phenylethenyl)-1(2H)-phthalazinone] | 59 | – |
